Target: TYK2 (Homo sapiens, UniProt P29597)
Experiment: TYK2 protein degradation in MOLT-4 cells by immunoblotting
Format: cell-based
Design: endogenous in cells; host or cells: MOLT-4
Conditions: MOLT-4 cells, 24 hours
Summary of the method: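 Percent TYK2 degradation came from densitometry of chemiluminescent immunoblots of RIPA lysates. Before lysis, MOLT-4 cells had been treated for 24 h with each compound at 0.5 or 5 μM.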

Sequence of TYK2 (P29597 whole entry): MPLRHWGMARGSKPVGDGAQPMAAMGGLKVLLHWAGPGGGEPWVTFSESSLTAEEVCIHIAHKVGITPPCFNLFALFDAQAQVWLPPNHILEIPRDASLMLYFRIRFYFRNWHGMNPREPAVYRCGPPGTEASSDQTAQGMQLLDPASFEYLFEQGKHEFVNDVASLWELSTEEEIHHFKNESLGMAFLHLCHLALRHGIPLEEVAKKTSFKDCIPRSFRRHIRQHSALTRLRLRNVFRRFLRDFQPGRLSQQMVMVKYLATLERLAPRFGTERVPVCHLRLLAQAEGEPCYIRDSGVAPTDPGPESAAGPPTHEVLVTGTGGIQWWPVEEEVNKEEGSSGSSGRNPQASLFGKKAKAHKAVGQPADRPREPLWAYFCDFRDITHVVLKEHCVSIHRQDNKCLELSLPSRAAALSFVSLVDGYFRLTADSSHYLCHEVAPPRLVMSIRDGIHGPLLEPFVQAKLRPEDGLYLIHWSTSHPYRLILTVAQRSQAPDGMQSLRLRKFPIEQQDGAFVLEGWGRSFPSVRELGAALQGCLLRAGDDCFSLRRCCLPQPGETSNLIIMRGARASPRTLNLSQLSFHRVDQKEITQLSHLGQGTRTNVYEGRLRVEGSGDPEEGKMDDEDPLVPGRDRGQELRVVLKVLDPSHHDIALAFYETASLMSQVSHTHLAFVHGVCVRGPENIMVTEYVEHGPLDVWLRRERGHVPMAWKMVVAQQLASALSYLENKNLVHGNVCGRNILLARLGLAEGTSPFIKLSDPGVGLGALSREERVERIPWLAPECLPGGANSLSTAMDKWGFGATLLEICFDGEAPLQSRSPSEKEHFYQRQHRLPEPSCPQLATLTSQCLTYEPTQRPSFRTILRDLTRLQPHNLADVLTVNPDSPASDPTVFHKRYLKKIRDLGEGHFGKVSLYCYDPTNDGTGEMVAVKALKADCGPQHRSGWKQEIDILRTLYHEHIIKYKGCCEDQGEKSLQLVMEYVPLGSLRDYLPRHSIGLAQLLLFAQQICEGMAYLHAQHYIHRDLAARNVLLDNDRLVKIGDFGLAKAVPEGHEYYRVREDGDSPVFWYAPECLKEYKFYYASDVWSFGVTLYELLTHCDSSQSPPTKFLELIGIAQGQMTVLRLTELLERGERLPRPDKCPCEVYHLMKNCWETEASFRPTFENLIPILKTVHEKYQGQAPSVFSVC

TYK2 Degradation (0.5 μM) | TYK2 Degradation (5 μM) | TYK2 Degradation (MOLT-4, 5 μM) | SMILES | TYK2 Degradation (MOLT-4, 0.5 μM)
≤20% | ≤20% |  | CNC(=O)c1nnc(NC(=O)C2CC2)cc1Nc1cccc(-c2ncn(CCNC(=O)COCCOCCOCC(=O)N[C@H](C(=O)N3C[C@H](O)C[C@H]3C(=O)NCc3ccc(-c4scnc4C)cc3)C(C)(C)C)n2)c1OC [CPD-070, 6-(Cyclopropanecarboxamido)-4-((3-(1-((S)-16-((2S,4R)-4-hydroxy-2-((4-(4-methylthiazol-5-yl)benzyl)carbamoyl)pyrrolidine-1-carbonyl)-17,17-dimethyl-4,14-dioxo-6,9,12-trioxa-3,15-diazaoctadecyl)-1H-1,2,4-triazol-3-yl)-2-methoxyphenyl)amino)-N-methylpyridazine-3-carboxamide] | 
≤20% | ≤20% |  | CNC(=O)c1nnc(NC(=O)C2CC2)cc1Nc1cccc(-c2ncn(CCNC(=O)COCC(=O)N[C@H](C(=O)N3C[C@H](O)C[C@H]3C(=O)NCc3ccc(-c4scnc4C)cc3)C(C)(C)C)n2)c1OC [CPD-066, 6-(Cyclopropanecarboxamido)-4-((3-(1-(2-(2-(2-(((S)-1-((2S,4R)-4-hydroxy-2-((4-(4-methylthiazol-5-yl)benzyl)carbamoyl)pyrrolidin-1-yl)-3,3-dimethyl-1-oxobutan-2-yl)amino)-2-oxoethoxy)acetamido)ethyl)-1H-1,2,4-triazol-3-yl)-2-methoxyphenyl)amino)-N-methylpyridazine-3-carboxamide] | 
≤20% | 30% |  | CNC(=O)c1nnc(NC(=O)CNC(=O)CCOCCOCCOCCNc2ccc3c(c2)C(=O)N(C2CCC(=O)NC2=O)C3=O)cc1Nc1cccc(-c2ncn(C)n2)c1OC (centres unmarked) [CPD-063, 6-(1-((2-(2,6-Dioxopiperidin-3-yl)-1,3-dioxoisoindolin-5-yl)amino)-12-oxo-3,6,9-trioxa-13-azapentadecan-15-amido)-4-((2-methoxy-3-(1-methyl-1H-1,2,4-triazol-3-yl)phenyl)amino)-N-methylpyridazine-3-carboxamide] | 
≤20% | ≤20% |  | CNC(=O)c1nnc(NC(=O)CNC(=O)CCOCCOCCOCCOCCNc2cccc3c2C(=O)N(C2CCC(=O)NC2=O)C3=O)cc1Nc1cccc(-c2ncn(C)n2)c1OC (centres unmarked) [CPD-052, 6-(1-((2-(2,6-Dioxopiperidin-3-yl)-1,3-dioxoisoindolin-4-yl)amino)-15-oxo-3,6,9,12-tetraoxa-16-azaoctadecan-18-amido)-4-((2-methoxy-3-(1-methyl-1H-1,2,4-triazol-3-yl)phenyl)amino)-N-methylpyridazine-3-carboxamide] | 
≤20% | ≤20% |  | CNC(=O)c1nnc(NC(=O)C2CC2)cc1Nc1cccc(-c2ncn(CCNC(=O)COCCOCCOCCOCCOCC(=O)N[C@H](C(=O)N3C[C@H](O)C[C@H]3C(=O)NCc3ccc(-c4scnc4C)cc3)C(C)(C)C)n2)c1OC [CPD-073, N^1-(2-(3-(3-((6-(Cyclopropanecarboxamido)-3-(methylcarbamoyl)pyridazin-4-yl)amino)-2-methoxyphenyl)-1H-1,2,4-triazol-1-yl)ethyl)-N^17-((S)-1-((2S,4R)-4-hydroxy-2-((4-(4-methylthiazol-5-yl)benzyl)carbamoyl)pyrrolidin-1-yl)-3,3-dimethyl-1-oxobutan-2-yl)-3,6,9,12,15-pentaoxaheptadecanediamide] | 
≤20% |  |  | CNC(=O)c1nnc(NC(=O)C2CC2)cc1Nc1cccc(-c2ncn(CCNC(=O)CCOCCNc3cccc4c3C(=O)N(C3CCC(=O)NC3=O)C4=O)n2)c1OC (centres unmarked) [CPD-008, 6-(Cyclopropanecarboxamido)-4-((3-(1-(2-(3-(2-((2-(2,6-dioxopiperidin-3-yl)-1,3-dioxoisoindolin-4-yl)amino)ethoxy)propanamido)ethyl)-1H-1,2,4-triazol-3-yl)-2-methoxyphenyl)amino)-N-methylpyridazine-3-carboxamide] | 

Further lines, the molecule ahead of its results:

SMILES | TYK2 Degradation (0.5 μM) | TYK2 Degradation (5 μM) | TYK2 Degradation (MOLT-4, 5 μM) | TYK2 Degradation (MOLT-4, 0.5 μM)
CNC(=O)c1nnc(NC(=O)CNC(=O)CCNc2ccc3c(c2)C(=O)N(C2CCC(=O)NC2=O)C3=O)cc1Nc1cccc(-c2ncn(C)n2)c1OC (centres unmarked) [CPD-055, 6-(2-(3-((2-(2,6-Dioxopiperidin-3-yl)-1,3-dioxoisoindolin-5-yl)amino)propanamido)acetamido)-4-((2-methoxy-3-(1-methyl-1H-1,2,4-triazol-3-yl)phenyl)amino)-N-methylpyridazine-3-carboxamide] | ≤20% | ≤20% |  | 
CNC(=O)c1nnc(NC(=O)C2CC2)cc1Nc1cccc(-c2ncn(CCNC(=O)CCOCCOCCOCCNc3cccc4c3C(=O)N(C3CCC(=O)NC3=O)C4=O)n2)c1OC (centres unmarked) [CPD-010, 6-(Cyclopropanecarboxamido)-4-((3-(1-(1-((2-(2,6-dioxopiperidin-3-yl)-1,3-dioxoisoindolin-4-yl)amino)-12-oxo-3,6,9-trioxa-13-azapentadecan-15-yl)-1H-1,2,4-triazol-3-yl)-2-methoxyphenyl)amino)-N-methylpyridazine-3-carboxamide] | ≤20% |  |  | 
CNC(=O)c1nnc(NC(=O)CNC(=O)COCCOCC(=O)N[C@H](C(=O)N2C[C@H](O)C[C@H]2C(=O)NCc2ccc(-c3scnc3C)cc2)C(C)(C)C)cc1Nc1cccc(-c2ncn(C)n2)c1OC [CPD-027, 6-((S)-13-((2S,4R)-4-Hydroxy-2-((4-(4-methylthiazol-5-yl)benzyl)carbamoyl)pyrrolidine-1-carbonyl)-14,14-dimethyl-4,11-dioxo-6,9-dioxa-3,12-diazapentadecanamido)-4-((2-methoxy-3-(1-methyl-1H-1,2,4-triazol-3-yl)phenyl)amino)-N-methylpyridazine-3-carboxamide] | ≤20% | ≤20% |  | 
CNC(=O)c1nnc(NC(=O)CNC(=O)CCCCCCCNc2ccc3c(c2)C(=O)N(C2CCC(=O)NC2=O)C3=O)cc1Nc1cccc(-c2ncn(C)n2)c1OC (centres unmarked) [CPD-060, 6-(2-(8-((2-(2,6-Dioxopiperidin-3-yl)-1,3-dioxoisoindolin-5-yl)amino)octanamido)acetamido)-4-((2-methoxy-3-(1-methyl-1H-1,2,4-triazol-3-yl)phenyl)amino)-N-methylpyridazine-3-carboxamide] | ≤20% | ≤20% |  | 
CNC(=O)c1nnc(NC(=O)CNC(=O)CCCCCCCCCC(=O)N[C@H](C(=O)N2C[C@H](O)C[C@H]2C(=O)NCc2ccc(-c3scnc3C)cc2)C(C)(C)C)cc1Nc1cccc(-c2ncn(C)n2)c1OC [CPD-041, N^1—((S)-1-((2S,4R)-4-Hydroxy-2-((4-(4-methylthiazol-5-yl)benzyl)carbamoyl)pyrrolidin-1-yl)-3,3-dimethyl-1-oxobutan-2-yl)-N^11-(2-((5-((2-methoxy-3-(1-methyl-1H-1,2,4-triazol-3-yl)phenyl)amino)-6-(methylcarbamoyl)pyridazin-3-yl)amino)-2-oxoethyl)undecanediamide] | 50% | 30% |  | 
CNC(=O)c1nnc(NC(=O)CNC(=O)CCCCCCCNC(=O)C[C@H](NC(=O)[C@@H]2C[C@@H](O)CN2C(=O)[C@@H](NC(=O)C2(F)CC2)C(C)(C)C)c2ccc(-c3scnc3C)cc2)cc1Nc1cccc(-c2ncn(C)n2)c1OC [CPD-092, 6-(2-(8-((S)-3-((2S,4R)-1-((S)-2-(1-Fluorocyclopropane-1-carboxamido)-3,3-dimethylbutanoyl)-4-hydroxypyrrolidine-2-carboxamido)-3-(4-(4-methylthiazol-5-yl)phenyl)propanamido)octanamido)acetamido)-4-((2-methoxy-3-(1-methyl-1H-1,2,4-triazol-3-yl)phenyl)amino)-N-methylpyridazine-3-carboxamide] |  |  | C (C: ≤20% TYK2 degradation) | C (C: ≤20% TYK2 degradation)
CNC(=O)c1nnc(NC(=O)C2CC2)cc1Nc1cccc(-c2ncn(CCNC(=O)CCCCCNc3cccc4c3C(=O)N(C3CCC(=O)NC3=O)C4=O)n2)c1OC (centres unmarked) [CPD-005, 6-(Cyclopropanecarboxamido)-4-((3-(1-(2-(6-((2-(2,6-dioxopiperidin-3-yl)-1,3-dioxoisoindolin-4-yl)amino)hexanamido)ethyl)-1H-1,2,4-triazol-3-yl)-2-methoxyphenyl)amino)-N-methylpyridazine-3-carboxamide] | ≤20% |  |  | 
CNC(=O)c1nnc(NC(=O)CNC(=O)CCCCCCC(=O)N[C@H](C(=O)N2C[C@H](O)C[C@H]2C(=O)N[C@@H](C)c2ccc(-c3scnc3C)cc2)C(C)(C)C)cc1Nc1cccc(-c2ncn(C)n2)c1OC [CPD-083, N^1-((S)-1-((2S,4R)-4-Hydroxy-2-(((S)-1-(4-(4-methylthiazol-5-yl)phenyl)ethyl)carbamoyl)pyrrolidin-1-yl)-3,3-dimethyl-1-oxobutan-2-yl)-N^8-(2-((5-((2-methoxy-3-(1-methyl-1H-1,2,4-triazol-3-yl)phenyl)amino)-6-(methylcarbamoyl)pyridazin-3-yl)amino)-2-oxoethyl)octanediamide] |  |  | A (A: ≥60% TYK2 degradation) | B (B: <60% TYK2 degradation, and >20% TYK2 degradation)
CNC(=O)c1nnc(NC(=O)C2CC2)cc1Nc1cccc(-c2ncn(CCNC(=O)CCCCNc3cccc4c3C(=O)N(C3CCC(=O)NC3=O)C4=O)n2)c1OC (centres unmarked) [CPD-004, 6-(Cyclopropanecarboxamido)-4-((3-(1-(2-(5-((2-(2,6-dioxopiperidin-3-yl)-1,3-dioxoisoindolin-4-yl)amino)pentanamido)ethyl)-1H-1,2,4-triazol-3-yl)-2-methoxyphenyl)amino)-N-methylpyridazine-3-carboxamide] | ≤20% |  |  | 

Source: patent publication US20240059671A1, “TYROSINE KINASE 2 (TYK2) DEGRADATION COMPOUNDS AND METHODS OF USE” (CULLGEN (SHANGHAI), INC., priority 2020, published 2024)
